# Test results from publication PMC9228185, “Accurate Mass Identification of an Interfering Water Adduct and Strategies in Development and Validation of an LC-MS/MS Method for Quantification of MPI8, a Potent SARS-CoV-2 Main Protease Inhibitor, in Rat Plasma in Pharmacokinetic Studies” (Pharmaceuticals, 2022).
# “Also recorded” adds a separate entry of the source. Like-named read-outs stand apart in the source and are kept apart here.
# Legend:
# [1] = assay type: physicochemical; details: 1 mg/mL in acetonitrile, −80 °C
# [2] = system: SARS-CoV-2 (USA-WA1/2020); set-up: method as in PMID 35229034; details: SARS-CoV-2 (USA-WA1/2020) in Vero E6 cells; read-out: EC50 to neutralize SARS-CoV-2; cited from earlier work
# [3] = Stability of MPI8 in rat plasma (QC samples, LC-MS/MS); assay type: in vitro ADME
# Protocol: The quantification of MPI8 concentrations in extracted plasma samples was performed on a 6500+ Triple Quad LC-MS/MS System using a Kinetex HILIC Column (unbonded silica stationary phase, 2.6 µm, 50 × 2.1 mm, 100 Å, Phenomenex, CA, USA). The optimized method used binary gradient mobile phases with water (containing 1 mM ammonium acetate) as mobile phase A and acetonitrile as mobile phase B. A flow rate of 0.4 mL/min was used with an injection volume of 2 μL. The autosampler and oven temperature were set at 10 °C and 30 °C, respectively. The running time was 5 min. In this study, the HILIC column, widely considered as an NP column, was eluted in a typical RP time program of the gradient: Phase B was initially kept at 5% for 0.2 min, increased from 5% to 90% in the next 1.3 min, then held at 90% for 1 min, and then decreased to 5% in 1.5 min, and kept stably at 5% for 1 min. The unique behavior of MPI8 on a HILIC column, which resembles an RP characteristic, was most likely due to its hydrophobic nature.
# Eighteen microliters of blank rat plasma, 2 μL of working solution (10×) (or 20 μL of rat plasma samples from pharmacokinetic studies), and 180 μL of acetonitrile (containing 5 ng/mL of IS) were vortex-mixed for 2 min and then centrifuged at 14,000 rpm for 20 min at 4 °C. Eighty μL of the supernatant were transferred to a sample vial for LC-MS/MS analysis. All samples were kept on ice during sample processing.
# The stability of MPI8 was examined by keeping four replicates of the QC samples at room temperature and on ice for 4 h, in the auto-sampler tray at 10 °C for 24 h, and in a freezer at −80 °C for 3 weeks; the freeze-thaw stability was obtained over three freeze-thaw cycles, by thawing at 4 °C for 2–3 h and then refreezing at −80 °C for 12–24 h. The concentration of MPI8 after each storage period was determined using the calibration curve analyzed on the same day. The accuracy was expressed by RE%, and the precision was CV%.
# [4] = Crossover pharmacokinetic study in rats after IV or oral MPI8 sulfonate; assay type: in vivo, Sprague-Dawley rats; details: for AUC(0-t): read-out: AUC0−10 h; for Cmax: po
# Excerpt: The validated assay was applied in a crossover pharmacokinetic study to evaluate the oral bioavailability of MPI8 sulfonate in rats. The animal study protocol (#9132) was reviewed and approved by the Institutional Animal Care and Use Committee (IACUC) at Texas Southern University on 11 July 2020.
# Male adult Sprague-Dawley rats were purchased from Envigo RMS (Indianapolis, IN, USA). Rats were cannulated via jugular vein a day before dosing. Three rats were intravenously administered a single dose of 5 mg/kg MPI8 sulfonate (5 mg/mL in 5% dextrose) via the jugular vein. Serial blood samples (about 0.1 mL) were collected from the cannulated jugular vein into heparin-coating tubes before dosing and at 2 min, 5 min, 15 min, 0.5 h, 1 h, 2 h, 4 h, 6 h, 8 h, 10 h, and 24 h time points after administration. After two weeks of washout period, the three rats were fasted overnight and orally administered a single dose of 50 mg/kg MPI8 sulfonate (20 mg/mL in water). Blood samples were collected before dosing and at 15 min, 0.5 h, 1 h, 1.5 h, 2 h, 2.5 h, 3 h, 4 h, 6 h, 8 h, 10 h, and 24 h time points after administration. Briefly, 12 time-point plasma samples from rats dosed intravenously and 13 time-point plasma samples from rats dosed orally were collected. Plasma samples were separated immediately by centrifugation of the blood samples at 13,000 rpm for 3 min and kept at −80 °C until analysis. The samples were processed following the procedure in Section 3.3.3. Three replicates for each time point were analyzed and the results were reported as mean values with standard deviation (SD) for each time point.
# The pharmacokinetic parameters for each rat were estimated using Phoenix WinNonlin v8.3 software (Pharsight Corporation, Mountain View, CA, USA). Non-compartmental analysis was used to determine the pharmacokinetic parameters of MPI8. The pharmacokinetic parameters, including the area under the plasma concentration–time curve during the period of measurable observation (AUC0−10h), the area under the plasma concentration–time curve extrapolated to infinity (AUC0−inf), the apparent volume of distribution (Vz/F), the apparent clearance (CL/F), the total body mean residence time (MRT), and the terminal elimination half-life (T1/2) were estimated. The oral bioavailability (F) was calculated according to the following equation:(1) F=AUCoral×Dosei.v./AUCi.v.×Doseoral
# [5] = system: cathepsin L; details: selective over cathepsins B and K; cited from earlier work
# [6] = set-up: method as in PMID 22915796, PMID 27027316; details: aldehyde bisulfite prodrug; cited from earlier work
# [7] = Auto-sampler (10 °C 24 h), nominal 1.5 ng/mL
# [8] = Auto-sampler (10 °C 24 h), nominal 25 ng/mL
# [9] = Auto-sampler (10 °C 24 h), nominal 400 ng/mL
# [10] = Bench top (4 h, 4 °C), nominal 1.5 ng/mL
# [11] = Bench top (4 h, 4 °C), nominal 25 ng/mL
# [12] = Bench top (4 h, 4 °C), nominal 400 ng/mL
# [13] = Freeze and thaw (−80 °C to 4 °C, 3 cycles), nominal 1.5 ng/mL
# [14] = Freeze and thaw (−80 °C to 4 °C, 3 cycles), nominal 25 ng/mL
# [15] = Freeze and thaw (−80 °C to 4 °C, 3 cycles), nominal 400 ng/mL
# [16] = Long-term (−80 °C, 20 days), nominal 1.5 ng/mL
# [17] = Long-term (−80 °C, 20 days), nominal 400 ng/mL
# [18] = male, Sprague-Dawley, in vivo, iv, rat, i.v. 5 mg/kg MPI8 sulfonate, NCA
# [19] = male, Sprague-Dawley, in vivo, rat, oral 50 mg/kg MPI8 sulfonate, NCA
# [20] = rat, i.v. 5 mg/kg MPI8 sulfonate, NCA
smiles,measurement,setting,value
"Cc1cc(=O)n(-c2ccccc2)n1C [AP, antipyrine, reference compound]",Stock solution stable for,[1],12 months
CC(OC(C)(C)C)C(NC(=O)OCc1ccccc1)C(=O)NC(CC1CCCCC1)C(=O)NC(C=O)CC1CCNC1=O (stereo not drawn) [MPI8],EC50,[2],30 nM
same,Calculated concentration (Mean ± SD),[3]; [7],1.44 ± 0.11 ng/mL
same,Stability accuracy (RE%),[3]; [7],−4.33%
same,Calculated concentration (Mean ± SD),[3]; [8],26.8 ± 1.91 ng/mL
same,Stability accuracy (RE%),[3]; [8],7.20%
same,Calculated concentration (Mean ± SD),[3]; [9],458.5 ± 47.18 ng/mL
same,Stability accuracy (RE%),[3]; [9],14.63%
same,Calculated concentration (Mean ± SD),[3]; [10],1.35 ± 0.11 ng/mL
same,Stability accuracy (RE%),[3]; [10],−9.87%
same,Calculated concentration (Mean ± SD),[3]; [11],21.3 ± 0.12 ng/mL
same,Stability accuracy (RE%),[3]; [11],−14.80%
same,Calculated concentration (Mean ± SD),[3]; [12],340.25 ± 14.03 ng/mL
same,Stability accuracy (RE%),[3]; [12],−14.94%
same,Calculated concentration (Mean ± SD),[3]; [13],1.33 ± 0.08 ng/mL
same,Stability accuracy (RE%),[3]; [13],−11.17%
same,Calculated concentration (Mean ± SD),[3]; [14],23.5 ± 1.41 ng/mL
same,Stability accuracy (RE%),[3]; [14],−6.00%
same,Calculated concentration (Mean ± SD),[3]; [15],362.2 ± 11.56 ng/mL
same,Stability accuracy (RE%),[3]; [15],−9.45%
same,Calculated concentration (Mean ± SD),[3]; [16],1.44 ± 0.19 ng/mL
same,Stability accuracy (RE%),[3]; [16],−4.22%
same,Calculated concentration (Mean ± SD),"[3]; Long-term (−80 °C, 20 days), nominal 25 ng/mL",25.18 ± 1.37 ng/mL
same,Calculated concentration (Mean ± SD),[3]; [17],399 ± 17.61 ng/mL
same,Stability accuracy (RE%),[3]; [17],−0.25%
same,Degradation under the experimental conditions,[3]; conditions of Table 4,No significant degradation
same,Stability at room temperature in rat plasma,[3]; room temperature,not stable
same,Bench top stability accuracy (RE%),"[3]; room temperature, 50 ng/mL, n = 4",−27.6%
same,C0 at 2 min,"[4]; male, Sprague-Dawley, in vivo, iv, rat, i.v. 5 mg/kg MPI8 sulfonate, 2 min after dosing, read-out: Mean initial plasma concentration",4480 ng/mL
same,concentration at 10 h,"[4]; male, Sprague-Dawley, in vivo, iv, rat, i.v. 5 mg/kg MPI8 sulfonate, 10 h post-dose, read-out: Mean plasma concentration",1.24 ng/mL
same,AUC(0-inf),[4]; [18],618 ± 15.7 ng·h/mL
same,MRT,[4]; [18],0.54 ± 0.1 h
same,half-life,[4]; [18],2.75 ± 0.53 h
same,AUC(0-t),[4]; [18],613 ± 15.4 ng·h/mL
same,AUC(0-inf),[4]; [19],1180 ± 288 ng·h/mL
same,MRT,[4]; [19],2.52 ± 0.16 h
same,half-life,[4]; [19],1.22 ± 0.46 h
same,Tmax,"[4]; male, Sprague-Dawley, in vivo, rat, oral 50 mg/kg MPI8 sulfonate, NCA, no unit in table (h)",2.17 ± 0.58 h
same,AUC(0-t),[4]; [19],1180 ± 290 ng·h/mL
same,CL/F,"[4]; male, Sprague-Dawley, in vivo, rat, oral 50 mg/kg MPI8 sulfonate, NCA, read-out: CL/F (converted)",733 mL/min/kg
same,Vd/F,"[4]; male, Sprague-Dawley, in vivo, rat, oral 50 mg/kg MPI8 sulfonate, NCA, read-out: Vz/F",81.6 L/kg
same,bioavailability,"[4]; male, Sprague-Dawley, rat, in vivo, 50 mg/kg, rat, oral 50 mg/kg vs i.v. 5 mg/kg MPI8 sulfonate, read-out: F (oral bioavailability)",15.8%
same,Cmax,"[4]; male, Sprague-Dawley, rat, in vivo, 50 mg/kg, oral 50 mg/kg MPI8 sulfonate",601 ng/mL
same,Cmax,"[4]; male, Sprague-Dawley, rat, in vivo, 50 mg/kg, oral 50 mg/kg MPI8 sulfonate, NCA, no unit in table (ng/mL)",601 ± 75 ng/mL
same,CL/F,[4]; [20],110.116 ± 3.5637 mL/min/kg
same,Vz/F,[4]; [20],"26,324.66 ± 5882.81 ml/kg"
same,Plasma concentration,"[4]; rat, i.v. 5 mg/kg MPI8 sulfonate, by 24 h",undetectable
same,Potency toward cathepsin L,[5],potent
same,Stock solution stable for,[1],3 months
CC(C)C[C@H](NC(=O)OCc1ccccc1)C(=O)N[C@@H](C[C@@H]1CCNC1=O)C(O)S(=O)(=O)[O-].[Na+] (stereo partly drawn) [GC376],Conversion into active aldehyde form,[6],quickly convert
CC(OC(C)(C)C)C(NC(=O)OCc1ccccc1)C(=O)NC(CC1CCCCC1)C(=O)NC(CC1CCNC1=O)C(O)S(=O)(=O)O (stereo not drawn) [MPI8 sulfonate],Conversion of prodrug to MPI8 in vivo,"[4]; in vivo, rats",rapid conversion; also recorded: rapidly converts
